Experimental data taken from the NIST ThermoML archive (doi:10.1021/je060354r).
± gives the expanded uncertainty stated by the source.

Test: Boiling temperature at pressure P
Settings: 100 kPa; Liquid; Ebulliometric method (Recirculating still)

- Boiling temperature at pressure P: 81.86 ± 0.22 °C
SMILES: CC(C)O [propan-2-ol]
